The source of these data is patent US20020132853A1, “Capsaicin receptor ligands” (priority 2000, published 2002).

Where only a bound is given, the exact number is not on record here.

The target of the first experiment is T1, human capsaicin receptor (Homo sapiens, UniProt Q8NER1).
T1 construct: expression consrtuct encoding the full length human capsaicin receptor; expressed in transfected cells
T1 sequence (Q8NER1 whole entry): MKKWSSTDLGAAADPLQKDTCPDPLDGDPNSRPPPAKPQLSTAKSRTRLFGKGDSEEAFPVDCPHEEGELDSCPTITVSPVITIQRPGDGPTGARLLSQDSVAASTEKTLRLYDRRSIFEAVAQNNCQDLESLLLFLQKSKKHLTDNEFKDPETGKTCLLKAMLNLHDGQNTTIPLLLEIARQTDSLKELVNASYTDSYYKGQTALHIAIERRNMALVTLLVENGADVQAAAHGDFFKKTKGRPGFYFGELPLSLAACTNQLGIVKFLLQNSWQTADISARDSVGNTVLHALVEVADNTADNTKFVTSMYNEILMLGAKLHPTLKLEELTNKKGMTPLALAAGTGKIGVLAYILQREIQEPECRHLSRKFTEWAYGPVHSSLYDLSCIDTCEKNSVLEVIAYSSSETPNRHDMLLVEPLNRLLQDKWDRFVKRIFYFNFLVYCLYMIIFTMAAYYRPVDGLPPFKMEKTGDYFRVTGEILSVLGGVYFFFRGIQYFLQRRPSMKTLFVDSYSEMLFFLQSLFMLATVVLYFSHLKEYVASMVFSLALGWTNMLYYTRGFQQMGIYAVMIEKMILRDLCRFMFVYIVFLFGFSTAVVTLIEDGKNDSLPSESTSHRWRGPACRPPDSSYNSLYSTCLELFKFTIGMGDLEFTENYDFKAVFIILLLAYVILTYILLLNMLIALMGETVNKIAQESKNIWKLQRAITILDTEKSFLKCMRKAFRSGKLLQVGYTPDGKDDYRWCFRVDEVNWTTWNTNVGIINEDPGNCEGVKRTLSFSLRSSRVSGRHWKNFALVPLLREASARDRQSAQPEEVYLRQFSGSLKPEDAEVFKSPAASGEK
The experiment in a line: Antagonist assay for Capsaicin receptor mediated calcium mobilization. It is filed as cell-based. The settings on record: Table V, read-out: EC50 (the source's name). In short, it runs like this:
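Cells expressing human capsaicin receptor, loaded with Fluo-3 AM, were preincubated 0.5–6 h at room temperature in the dark with test compound at 1–5 μM final in KRH buffer (pH 7.4, 2 mM CaCl2, probenecid). Capsaicin at its EC50 was then added via FLIPR; IC50 is the antagonist concentration halving the calcium signal.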
On to `CC(c1ccc(NC(=O)N2CCN(c3ncccc3F)C[C@H]2C)cc1)C(F)(F)F` (stereo partly drawn) [Compound 130, (2R)-4-(3-fluoropyridin-2-yl)-2-methyl-N-[4-(2,2,2-trifluoro-1-methylethyl)phenyl]piperazine-1-carboxamide], for which the IC50 is under 1000 nM.
On to `C[C@@H]1CN(c2ncc([N+](=O)[O-])cc2Cl)CCN1C(=O)Nc1ccc(C(F)(F)F)cc1` [Compound 131, (2R)-4-(3-chloro-5-nitrpyridin-2-yl)-2-methyl-N-[4-(trifluoromethyl)phenyl]piperazine-1-carboxamide], for which the IC50 was under 1000 nM.
On the same count and under the same terms, the result for `C[C@@H]1CN(c2ncc(N)cc2Cl)CCN1C(=O)Nc1ccc(C(F)(F)F)cc1` [Compound 132, (2R)-4-(5-amino-3-chloropyridin-2-yl)-2-methyl-N-[4-(trifluoromethyl)phenyl]piperazine-1-carboxamide] reads under 1000 nM; that for `C[C@@H]1CN(c2ncccc2S(N)(=O)=O)CCN1C(=O)Nc1ccc(C(C)(C)C)cc1` [Compound 139, (2R)-4-[3-(aminosulfonyl)pyridin-2-yl]-N-(4-tert-butylphenyl)-2-methylpiperazine-1-carboxamide], under 1000 nM; that for `C[C@@H]1CN(c2ncccc2Cl)CCN1C(=O)Nc1ccc(C(=O)c2ccccc2)cc1` [Compound 140, (2R)-N-(4-benzoylphenyl)-4-(3-chloropyridin-2-yl)-2-methylpiperazine-1-carboxamide], under 1000 nM.
Still for that read-out and setting: the same measure for `C[C@@H]1CN(c2ncccc2Cl)CCN1C(=O)Nc1ccc(I)cc1` [Compound 141, (2R)-4-(3-chloropyridin-2-yl)-N-(4-iodophenyl)-2-methylipierazine-1-carboxamide]: under 1000 nM.
For `C[C@@H]1CN(c2ncccc2Cl)CCN1C(=O)Nc1ccc2c(c1)Cc1ccccc1-2` [Compound 142, (2R)-4-(3-chloropyridin-2-yl)-N-(9H-flouren-2-yl)-2-methylpiperazine-1-carboxamide], the IC50 was under 1000 nM.
In the case of `C[C@@H]1CN(c2ncccc2C(F)(F)F)CCN1C(=O)Nc1ccc2c(c1)Cc1ccccc1-2` [Compound 143, (2R)-N-(9H-fluoren-2-yl)-2-methyl-4-[3-(trifluoromethyl)pyridin-2-yl]piperazine-1-carboxamide], the IC50 was under 1000 nM.
As to `C[C@@H]1CN(c2ncccc2Cl)CCN1C(=O)Nc1ccc(C(C(F)(F)F)(C(F)(F)F)C(F)(F)F)cc1` [Compound 148, *2R)-4-(3-chloropyridin-2-yl)-2-methyl_n_{4-[2,2,2-trifluoro-1,1-bis(trifluoromethyl)-ethyl]phenyl}piperazine-1-carboxamide], the IC50 is under 1000 nM.
Same read-out and setting: the same measure for `C[C@@H]1CN(c2ncccc2C(F)(F)F)CCN1C(=O)Nc1ccc(C(C(F)(F)F)(C(F)(F)F)C(F)(F)F)cc1` [Compound 149, (2R)-2-methyl-N-{4-[2,2,2-trifluoro-1,1-bis(trifluoromethyl)-ethyl]phenyl}-4-[3-(trifluoromethyl)pyridin-2-yl]piperazine-1-carboxamide]: under 1000 nM; for `C[C@@H]1CN(c2ncccc2Cl)CCN1C(=O)Nc1cccc(I)c1` [Compound 150, (2R)-4-(3-chloropyridin-2-yl)-N-(3-iodophenyl)-2-methylpiperazine-1-carboxamide]: under 1000 nM.
With `C[C@@H]1CN(c2ncccc2F)CCN1C(=O)Nc1cccc(I)c1` [Compound 151, (2R)-4-(3-fluoropyridin-2-yl)-N-(3-iodophenyl)-2-methylpiperazine-1-carboxamide], the IC50 was under 1000 nM.
As to `CCCCc1ccc(NC(=O)N2CCN(c3ncccc3Cl)C[C@H]2C)cc1` [Compound 152, (2R)-N-(4-butylphenyl)-4-(3-chloropyridin-2-yl)-2-methylpiperazine-1-carboxamide], the IC50 was under 1000 nM.
On the same count and under the same terms, the same measure for `O=C(Nc1ccc(C(F)(F)F)cc1)N1CCN(c2ncccc2C(F)(F)F)CC1CF` (stereo not drawn) [Compound 153, 2-(fluoromethyl)-N-[4-(trifluoromethyl)phenyl]-4-[3-(trifluoromethyl)pyridin-2-yl]piperazine-1-carboxamide]: under 1000 nM.
For the compound `Cc1ccc(NC(=O)N2CCN(c3ncccc3C(F)(F)F)C[C@H]2C)cc1C(F)(F)F` [Compound 155, (2R)-2-methyl-N-[4-methyl-3-(trifluoromethyl)phenyl]-4-[3-(trifluoromethyl)pyridin-2-yl]piperazine-1-carboxamide], the IC50 was under 1000 nM.
The same measure, in the same setting: the same measure for `C[C@@H]1CN(c2ncccc2Cl)CCN1C(=O)Nc1ccc(Br)c(C(F)(F)F)c1` [Compound 156, (2R)-N-[4-bromo-3-(trifluoromethyl)phenyl]-4-(3-chloropyridin-2-yl)-2-methylpiperazine-1-carboxamide]: under 1000 nM.
On the same count and under the same terms, the result for `C[C@@H]1CN(c2ncccc2C(F)(F)F)CCN1C(=O)Nc1ccc(Br)c(C(F)(F)F)c1` [Compound 157, (2R)-N-[4-bromo-3-(trifluoromethyl)phenyl]-2-methyl-4-[3-(trifluoromethyl)pyridin-2-yl]piperazine-1-carboxamide] reads under 1000 nM; that for `C[C@@H]1CN(c2ncccc2Cl)CCN1C(=O)Nc1ccc(Cl)c(C(F)(F)F)c1` [Compound 158, (2R)-4-(3-chloropyridin-2-yl)-N-[4-chloro-3-(trifluoromethyl)phenyl]-2-methylpiperazine-1-carboxamide], under 1000 nM.
Same read-out and setting: the result for `C[C@@H]1CN(c2ncccc2Cl)CCN1C(=O)Nc1ccc(F)c(C(F)(F)F)c1` [Compound 159, (2R)-4-(3-chlorpyridin-2-yl)-N-[4-fluoro-3-(trifluoromethyl)phenyl]-2-methylpiperazine-1-carboxamide] reads under 1000 nM; that for `C[C@@H]1CN(c2ncccc2C(F)(F)F)CCN1C(=O)Nc1ccc(Cl)c(C(F)(F)F)c1` [Compound 160, (2R)-N-[4-chloro-3-(trifluoromethyl)phenyl]-2-methyl-4-[3-(trifluoromethyl)pyridin-2-yl]piperazine-1-carboxamide], under 1000 nM.
For the compound `C[C@@H]1CN(c2ncccc2C(F)(F)F)CCN1C(=O)Nc1ccc(F)c(C(F)(F)F)c1` [Compound 161, (2R)-N-[4-fluoro-3-(trifluoromethyl)phenyl]-2-methyl-4-[3-(trifluoromethyl)pyridin-2-yl]piperazine-1-carboxamide], the IC50 was under 1000 nM.
Take `C[C@@H]1CN(c2ncccc2Cl)CCN1C(=O)Nc1ccc(C(F)(C(F)(F)F)C(F)(F)F)cc1` [Compound 162, (2R)-4-(3-chloropyridin-2-yl)-2-methyl-N-{4-[1,2,2,2-tetrafluoro-1-(trifluoromethyl)ethyl]phenyl}piperazine-1-carboxamide]: the IC50 was under 1000 nM.
In the case of `C[C@@H]1CN(c2ncccc2C(F)(F)F)CCN1C(=O)Nc1ccc(C(F)(C(F)(F)F)C(F)(F)F)cc1` [Compound 163, (2R)-2-methyl-N-{4-[1,2,2,2-tetrafluoro-1-(trifluoromethyl)ethyl]phenyl}-4-[3-(trifluoromethyl)pyridin-2-yl]piperazine-1-carboxamide], the IC50 was under 1000 nM.

Staying with this experiment, now noted: Table VI, read-out: EC50 (the source's name).
With `C[C@@H]1CN(c2nccnc2Cl)CCN1C(=O)Nc1ccc(C(F)(C(F)(F)F)C(F)(F)F)cc1` [Compound 164, (2R)-4-(3-chloropyrazin-2-yl)-2-methyl-N-{4-[1,2,2,2-tetrafluoro-1-(trifluoromethyl)ethyl]phenyl}piperazine-1-carboxamide], the IC50 was under 1000 nM.
